Measured values as given in PMC10117764, “The roles of serine hydrolases and serum albumin in alisol B 23-acetate hydrolysis in humans” (Frontiers in Pharmacology, 2023).

What was measured:
[1] = Hydrolytic half-life of AB23A in pig liver microsomes; format: in vitro ADME; conditions: pig liver microsomes (PLMs), pH 7.4, PLMs 0.10 mg/mL, read-out: T1/2 (hydrolytic half-life)
hCES2A = molecular target: T1, hCES2A (Homo sapiens, UniProt O00748); assay: Reaction phenotyping assay of AB23A hydrolysis, hCES2A; format: in vitro ADME; conditions: hCES2A 5 μg/mL, AB23A 20 μM, 60 min, pH 7.4 at 37°C
T1 construct: 10xHis; made in house; host or cells: HEK293-F cells, pTT5 vector, purified from conditioned medium
T1 sequence (O00748 27-559): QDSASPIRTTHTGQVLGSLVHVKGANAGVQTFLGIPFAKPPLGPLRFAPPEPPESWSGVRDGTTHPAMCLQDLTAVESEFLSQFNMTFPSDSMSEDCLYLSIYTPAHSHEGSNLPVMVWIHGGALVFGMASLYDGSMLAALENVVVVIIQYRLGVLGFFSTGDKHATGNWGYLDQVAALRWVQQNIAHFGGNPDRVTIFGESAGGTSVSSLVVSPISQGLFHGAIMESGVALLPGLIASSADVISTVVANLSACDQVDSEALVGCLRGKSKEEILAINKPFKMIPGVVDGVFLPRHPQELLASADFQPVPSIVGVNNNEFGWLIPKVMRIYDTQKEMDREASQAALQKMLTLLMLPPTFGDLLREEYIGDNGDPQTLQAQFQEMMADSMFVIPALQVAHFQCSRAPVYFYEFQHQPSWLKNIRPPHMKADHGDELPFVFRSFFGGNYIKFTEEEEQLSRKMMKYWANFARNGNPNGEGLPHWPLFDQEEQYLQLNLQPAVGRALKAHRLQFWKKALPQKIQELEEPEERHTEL
Description: (§1) The hydrolytic rates of AB23A in different human recombinant enzymes (hCES1A, hCES2A, hPL, hIAH1, hNotum, hAchE, hBchE, hSA, hCTSA, hMAGL) were assayed. The incubation system included PBS, each tested enzyme (5 μg/mL, final concentration), and AB23A (20 μM). After incubation for 1 h at 37°C, ice-cold acetonitrile was added to terminate the reaction and precipitate proteins. The supernatants by centrifuging were used to quantify the formation rates of AB by LC-UV analysis. The detection wavelength of AB was 196 nm.

[2] = Hydrolytic half-life of AB23A in rat liver microsomes; format: in vitro ADME; conditions: rat liver microsomes (RLMs), pH 7.4, RLMs 0.10 mg/mL, read-out: T1/2 (hydrolytic half-life)
Description: (§2) The hydrolytic half-lives (t1/2) of AB23A in human plasma and different human tissue preparations were carried out according to the procedure of in vitro metabolic stability studies ([Ge et al., 2013]). The incubation mixture (1,000 μL) consisted of PBS (pH 7.4), enzyme sources (HLMs/HIMs/human plasma) and AB23A. 25% diluted human plasma was used, the protein concentrations of other tissue microsomes were 0.1 mg/mL. The 100 μL incubation mixture was moved to another containing ice-cold acetonitrile tube at different time points (0, 5, 15, 30, 45, 60, 90, 120 min). All samples were centrifuged for 30 min at 20,000 g 4°C and took the supernatants for LC-UV analysis.
(§3) The incubation conditions were as follows: the classic incubation system included 100 mM potassium phosphate buffer (PBS, pH 7.4), enzyme sources, and AB23A. In all incubations, PBS and enzyme sources were pre-incubation at 37 °C for 3 min and the reaction was started by adding AB23A (the organic solvent content at most 1%). After reacting 1 h, ice-cold acetonitrile was added to terminate the reaction and precipitate proteins. The samples were centrifuged for 30 min at 20000 × g, 4 °C, and the supernatants were taken for further LC-UV analysis.

[3] = set-up: method as in Liu et al. (2022); conditions: oral administration of Qingfei Paidu Decoction, ref Liu et al. (2022); cited from earlier work
[4] = AB23A hydrolysis in human kidney microsomes; format: in vitro ADME
Description: as §2, §3

hSA = molecular target: T2, hSA (Homo sapiens, UniProt P02768); assay: Reaction phenotyping assay of AB23A hydrolysis, hSA; format: in vitro ADME; conditions: hSA 500 μg/mL (Figure 3), AB23A 20 μM, 60 min, pH 7.4 at 37°C
T2 construct: purchased Sigma-Aldrich Lot#SLCC9268
T2 sequence (P02768 25-609): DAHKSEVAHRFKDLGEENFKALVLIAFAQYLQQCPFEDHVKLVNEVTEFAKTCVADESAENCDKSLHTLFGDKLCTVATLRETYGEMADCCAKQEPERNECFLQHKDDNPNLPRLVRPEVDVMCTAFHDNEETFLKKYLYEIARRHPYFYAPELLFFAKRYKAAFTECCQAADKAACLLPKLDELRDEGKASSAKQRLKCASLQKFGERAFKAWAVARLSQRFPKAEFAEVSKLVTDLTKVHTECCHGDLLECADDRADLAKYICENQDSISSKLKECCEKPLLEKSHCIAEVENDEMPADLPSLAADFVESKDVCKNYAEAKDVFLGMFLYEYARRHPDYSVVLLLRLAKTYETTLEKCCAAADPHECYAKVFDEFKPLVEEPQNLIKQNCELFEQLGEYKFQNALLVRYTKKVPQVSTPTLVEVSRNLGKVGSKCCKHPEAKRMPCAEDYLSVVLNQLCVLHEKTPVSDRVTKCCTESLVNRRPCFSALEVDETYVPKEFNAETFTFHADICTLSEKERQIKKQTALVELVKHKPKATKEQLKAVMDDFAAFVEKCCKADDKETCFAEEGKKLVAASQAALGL
Description: as §1, with “The incubation system included PBS, each tested enzyme (5 μg/mL, final concentration), and AB23A (20 μM).” left out

CC(=O)O[C@H](C[C@@H](C)C1=C2C[C@H](O)C3[C@@]4(C)CCC(=O)C(C)(C)C4CC[C@]3(C)[C@@]2(C)CC1)[C@H]1OC1(C)C (stereo partly drawn) [AB23A, Alisol B 23-acetate]
half-life [1]: 9.5 ± 0.05 min
Hydrolytic rate (formation of AB) in reaction phenotyping (hCES2A): also catalyzed this hydrolytic reaction
half-life [2]: 55.63 ± 0.11 min
Detection in mice plasma and liver [3]: hardly detected
Formation of AB (hydrolytic metabolite) in HKMs [4]: trace amount of AB
Hydrolytic rate (formation of AB) in reaction phenotyping (hSA): also catalyzed this hydrolytic reaction
